Assay: human study: plasma curcumin after a single oral dose of 500 mg curcumin
Type: in vivo
Conditions: 24 healthy persons, read-out: curcumin concentration in blood plasma
Protocol: The solubilisate according to the invention is further characterized in that the total curcuminoid concentration in human blood plasma, measured one hour after oral administration of 500 mg curcumin in the form of the solubilisate, is approximately 500 ng curcuminoid per ml plasma±100 ng curcuminoid per ml plasma. In contrast, when native curcumin is taken orally in powdered form, only approximately 1.3 ng curcuminoid per ml plasma is achieved after one hour.
The human study on which these values are based was conducted on 24 healthy persons between 19 and 29 years of age, who received a single oral dose of 500 mg native curcumin or curcumin in the form of the solubilisate according to the invention. Blood samples were withdrawn at various times over a period of 24 hours after the curcumin was taken. To minimize the possible concurrent influence of digested food, the test subjects were served standardized meals. One hour after taking the curcumin in native form, less than 1 nmol/l plasma was measured; 8 hours after administration, 2.4 nmol/l was measured; and 24 hours after administration, 2.4 nmol/l was measured. In contrast, for curcumin from the solubilisate according to the invention, one hour after administration, 1,964 nmol/l was measured in the blood plasma; 8 hours after administration, 307.1 nmol/l was measured; and 24 hours after administration, 67.7 nmol/l was measured. A solubilisate containing […] curcumin was used (the commercial product “6% NovaSOL Curcumin” of the applicant).

concentration at 8 h (8 hours after single oral dose of 500 mg): 2.4 nM | concentration at 24 h (24 hours after single oral dose of 500 mg): 2.4 nM | concentration at 1 h (one hour after single oral dose of 500 mg): < 1 nM
Structure (SMILES): COc1cc(/C=C/C(=O)CC(=O)/C=C/c2ccc(O)c(OC)c2)ccc1O [native curcumin, Curcumin]

Source: patent US11311483B2, “Curcumin solubilisate” (AQUANOVA AG, priority 2012, dated 2022)
